From ChEMBL document CHEMBL5356942, “MEK inhibitors in cancer treatment: structural insights, regulation, recent advances and future perspectives” (RSC Med Chem, 2023) come the findings set out here.

Data set [1] is described as follows: AUC (0 to t) in ICR mouse at 3 mg/kg, po administered via gavage measured after 24 hrs by LC-MS/MS analysis. Type of data set: ADME, organism-based. The arrangement: time 24 hrs, dose 3 mg/kg, route po. Conditions: in vivo.
Data set [2] in a line: Oral bioavailability in ICR mouse at 3 mg/kg measured after 24 hrs by LC-MS/MS analysis. Type of data set: ADME, organism-based. As to conditions: in vivo.
The test system of the next data set is HEK293. The data set can be described thus: Cytotoxicity against HEK293 cells assessed as reduction in cell viability measured after 66 hrs by MTT assay. Type of data set: functional. As to conditions: Homo sapiens.
Data set [3] is described as follows: Therapeutic index, ratio of CC50 for HEK293 cells to EC50 for antiviral activity against human EV71 infected in HEK293 cells. Type of data set: functional.
Data set [4] can be described thus: Therapeutic index, ratio of CC50 for RD cells to EC50 for antiviral activity against human EV71 infected in RD cells. Type of data set: functional.
For a further data set, the system named is RD. The data set can be described thus: Cytotoxicity against human RD cells assessed as reduction in cell viability incubated for 72 hrs by MTT assay. Type of data set: functional.
Data set [5] concerns Enterovirus A71. The data set can be described thus: Antiviral activity against human Enterovirus 71 BrCr infected in human RD cells assessed as reduction of virus induced cytopathic effect incubated for 48 hrs by MTS assay. Type of data set: functional, organism-based. As to conditions: Enterovirus A.
Data set [6] has as its system Enterovirus A71. The data set can be described thus: Antiviral activity against human EV71 infected in HEK293 cells assessed as reduction in viral replication at MOI of 1 incubated for 48 hrs by luciferase assay. Type of data set: functional, organism-based. As to conditions: Enterovirus A, HEK293, 48 h.
A further data set relates to A-431. The data set can be described thus: Antiproliferative activity against human A-431 cells assessed as reduction in cell proliferation incubated for 24 hrs by MTT assay. Type of data set: functional, cell-based. Conditions: A-431, 24 h.
Another data set concerns COLO 205. The data set can be described thus: Antiproliferative activity against human COLO 205 cells assessed as reduction in cell proliferation incubated for 24 hrs byMTS assay. Type of data set: functional, cell-based. Conditions: COLO 205, 24 h.
Another data set deals with A-375. The data set can be described thus: Antiproliferative activity against human A375 cells assessed as reduction in cell growth incubated for 24 hrs by MTT assay. As to conditions: A-375, 24 h. Type of data set: functional, cell-based.
The next data set deals with Calu-6. The data set can be described thus: Antiproliferative activity against human Calu-6 cells assessed as reduction in cell growth incubated for 24 hrs by MTT assay. Type of data set: functional, cell-based. As to conditions: Calu-6, 24 h.
The subject of data set [7] is HT-29. The data set can be described thus: Antiproliferative activity against human HT-29 cells assessed as reduction in cell growth incubated for 24 hrs by MTT assay. As to conditions: HT-29, 24 h. Type of data set: functional, cell-based.
Data set [8] deals with HT-29. The data set can be described thus: Cytotoxicity against human HT-29 cells assessed as reduction in cell viability incubated for 24 hrs in dark by MTT assay. Type of data set: functional, cell-based. Conditions: HT-29, 24 h.
For another data set, the system named is MCF7. The data set can be described thus: Cytotoxicity against human MCF7 cells assessed as reduction in cell viability incubated for 24 hrs by MTT assay. Conditions: MCF7, 24 h. Type of data set: functional, cell-based.
The next data set relates to B16. The data set can be described thus: Cytotoxicity against mouse B16 cells assessed as reduction in cell viability incubated for 24 hrs by MTT assay. Conditions: B16, 24 h. Type of data set: functional, cell-based.
The test system of a further data set is MDA-MB-231. The data set can be described thus: Cytotoxicity against human MDA-MB-231 cells assessed as reduction in cell viability incubated for 72 hrs by MTT assay. Type of data set: functional, cell-based. As to conditions: MDA-MB-231, 72 h.
Data set [9] concerns SMMC-7721. The data set can be described thus: Cytotoxicity against human SMMC-7721 cells assessed as reduction in cell viability incubated for 72 hrs by MTT assay. Type of data set: functional, cell-based. Conditions: SMMC-7721, 72 h.
The test system of the next data set is HeLa. The data set can be described thus: Cytotoxicity against human HeLa cells assessed as reduction in cell viability incubated for 72 hrs by MTT assay. Type of data set: functional, cell-based.
The nature of data set [10]: Cytotoxicity against human QSG7701 cells assessed as inhibition of cell growth incubated for 72 hrs by MTT assay. Type of data set: functional, cell-based. Conditions: QSG7701, 72 h.
For data set [11], the target named is Mitogen-activated protein kinase 1 (Homo sapiens, UniProt P28482). The data set can be described thus: Inhibition of ERK2 phosphorylation in human A375 cells.
Sequence of Mitogen-activated protein kinase 1 (P28482 whole entry): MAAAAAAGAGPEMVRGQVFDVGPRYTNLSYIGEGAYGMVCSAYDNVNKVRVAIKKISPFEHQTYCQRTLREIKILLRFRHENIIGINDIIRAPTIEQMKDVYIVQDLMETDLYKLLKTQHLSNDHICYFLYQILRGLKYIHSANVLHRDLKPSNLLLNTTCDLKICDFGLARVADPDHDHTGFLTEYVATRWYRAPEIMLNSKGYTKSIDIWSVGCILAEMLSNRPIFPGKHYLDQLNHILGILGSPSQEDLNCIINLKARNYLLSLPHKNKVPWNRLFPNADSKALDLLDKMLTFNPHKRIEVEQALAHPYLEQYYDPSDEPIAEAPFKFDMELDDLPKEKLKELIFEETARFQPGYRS
Data set [12] in a line: Inhibition of ERK phosphorylation in human A-431 cells at 1 to 10 uM incubated for 24 hrs by Western blot analysis. Type of data set: cell-based. Conditions: A-431, 24 h.
Data set [13] is described as follows: Cytotoxicity against human QSG7701 cells assessed as inhibition of cell growth incubated for 48 hrs by MTT assay. Type of data set: functional, cell-based. Conditions: QSG7701, 48 h.
In another data set the test system is Hep 3B2. The data set can be described thus: Cytotoxicity against human Hep3B cells assessed as reduction in cell viability incubated for 48 hrs by MTT assay. Type of data set: functional, cell-based.
Data set [14] concerns SMMC-7721. The data set can be described thus: Cytotoxicity against human SMMC-7721 cells assessed as reduction in cell growth incubated for 48 hrs by MTT assay. Type of data set: functional, cell-based. Conditions: SMMC-7721, 48 h.

With `Cc1cc(I)ccc1Nc1c(C(=O)NOCCO)cc2ocnc2c1F`, in [1], the AUCt stood at 337 ng·h/mL. This compound also displayed a bioavailability in [2] of 28%.
For `CCc1c(Cc2ccc(F)cc2)c(=O)oc2cc(OC(=O)N(C)C)ccc12`, the CC50 with HEK293 worked out at 65.3 µM; with RD it was 72.9 µM. Moreover, the “Ratio CC50/EC50” value in data set [3] amounted to 3.37; in data set [4], 7.29. Further, the half-maximal effective concentration (EC50) in the data set on Enterovirus A71 [5] stood at 10 µM; in the data set on Enterovirus A71 [6], 19.4 µM.
Turning to `O=C(NOCCO)c1cc2ocnc2c(F)c1Nc1ccc(F)cc1F`, the 50% inhibitory concentration (IC50) in the data set on A-431 is over 3 µM; in the data set on COLO 205 it was 0.0057 µM; in the data set with A-375, 0.0043 µM; in the data set on Calu-6, 0.169 µM; with HT-29 [7] it was 0.0029 µM.
Turning to `N#Cc1c(-c2ccccc2Br)c(N2CCOCC2)n(-c2ccc(Cl)cc2Cl)c1N`, the IC50 is 1.47 µM in the data set on HT-29 [8], 1.35 µM in the data set on MCF7 and 4.61 µM in the data set with B16.
With `CC(=O)NNC(=O)[C@]12CC[C@@H](C)[C@H](C)C1C1=CCC3[C@@]4(C)Cc5cc6cc(Cl)ccc6cc5C(C)(C)C4CC[C@@]3(C)[C@]1(C)CC2` (stereo not given in full), the 50% inhibitory concentration (IC50) in the data set with MDA-MB-231 came to 0.12 µM; in the data set with SMMC-7721 [9], 0.34 µM; with HeLa, 0.08 µM; in data set [10] it was 10.8 µM.
In turn, `CC(=O)COC[C@H](O)CONC(=O)c1ccc(F)c(F)c1Nc1ccc(F)cc1F` returned an IC50 in [11] of 0.018 µM.
Regarding `Cn1c(=O)c(F)c(Nc2ccc(I)cc2F)c2c(=O)n(C[C@@H](O)CO)cnc21` [TAK-733], in data set [12], the concentration for a half-maximal effect (EC50) came out at 0.00019 µM.
For `CCOc1ccc2c(c1)c1c(n2CCN2CCNCC2)-c2cc(C(C)C)ccc2[C@@]2(C)CCC[C@@](C)(C(=O)OC)C12` (stereo not given in full), the results for the concentration for half-maximal inhibition (IC50) (in data set [13]; with Hep 3B2; in the data set with SMMC-7721 [14]) were 12.5 µM, 0.73 µM and 1.39 µM, respectively.
